Measured values published in ChEMBL document CHEMBL3885881, “DrugMatrix”.

Species on record: Rattus norvegicus
Assay: DrugMatrix - Regimen: Daily Repeat
Type: toxicity, organism-based, Sprague-Dawley
Parameters: regimen Daily Repeat, gender Male, age 6-8 weeks
Settings: in vivo, po, route oral GAVAGE, vehicle .5 % CMC; for BASOPHIL / EOSINOPHIL / ERYTHROCYTE COUNT / HEMATOCRIT / HEMOGLOBIN / LEUKOCYTE COUNT / LYMPHOCYTE / MEAN CORPUSCULAR HEMOGLOBIN / MEAN CORPUSCULAR HEMOGLOBIN CONCENTRATION / MEAN CORPUSCULAR VOLUME / MONOCYTE / NEUTROPHIL / PLATELET COUNT: tissue Blood; for ALANINE AMINOTRANSFERASE / ALBUMIN / ALKALINE PHOSPHATASE / ASPARTATE AMINOTRANSFERASE / BLOOD UREA NITROGEN / CARBON DIOXIDE / CHLORIDE / CHOLESTEROL / CREATINE PHOSPHOKINASE / CREATININE / GLUCOSE / LACTATE DEHYDROGENASE / LIPASE / PHOSPHORUS / POTASSIUM / SODIUM / TOTAL BILIRUBIN / TOTAL PROTEIN / URIC ACID: tissue Plasma
[1] = 0 mg/kg, 72 h, dose level Control, time 3 day
[2] = 0 mg/kg, 120 h, dose level Control, time 5 day
[3] = 1200 mg/kg, 72 h, dose level High, time 3 day
[4] = 1200 mg/kg, 120 h, dose level High, time 5 day

Question: Which results are given for `CCCCC1=NC2(CCCC2)C(=O)N1Cc1ccc(-c2ccccc2-c2nnn[nH]2)cc1` [IRBESARTAN]?
Answer: BASOPHIL [1]: 0.17%; EOSINOPHIL [1]: 0.83%; ERYTHROCYTE COUNT [1]: 7.2 x10E6/uL; HEMATOCRIT [1]: 43.13%; HEMOGLOBIN [1]: 14.63 G/DL; LEUKOCYTE COUNT [1]: 9.05 x10E3/uL; LYMPHOCYTE [1]: 75.17%; MEAN CORPUSCULAR HEMOGLOBIN [1]: 20.35 pg; MEAN CORPUSCULAR HEMOGLOBIN CONCENTRATION [1]: 33.95 G/DL; MEAN CORPUSCULAR VOLUME [1]: 59.93 fL; MONOCYTE [1]: 2.83%; NEUTROPHIL [1]: 21.17%; PLATELET COUNT [1]: 1093.17 x10E3/uL; ALANINE AMINOTRANSFERASE [1]: 49.17 u/L; ALBUMIN [1]: 4.33 G/DL; ALKALINE PHOSPHATASE [1]: 366.5 u/L; ASPARTATE AMINOTRANSFERASE [1]: 86.33 u/L; BLOOD UREA NITROGEN [1]: 17 mg/dL; CARBON DIOXIDE [1]: 24.17 mmol/L; CHLORIDE [1]: 102.83 MEQ/L; CHOLESTEROL [1]: 78.33 mg/dL; CREATINE PHOSPHOKINASE [1]: 320.83 u/L; CREATININE [1]: 0.3 mg/dL; GLUCOSE [1]: 140.83 mg/dL; LACTATE DEHYDROGENASE [1]: 210 u/L; LIPASE [1]: 9.33 u/L; PHOSPHORUS [1]: 9.12 mg/dL; POTASSIUM [1]: 5.65 MEQ/L; SODIUM [1]: 144.17 MEQ/L; TOTAL BILIRUBIN [1]: 0.1 mg/dL; TOTAL PROTEIN [1]: 6.3 G/DL; URIC ACID [1]: 1.03 mg/dL; BASOPHIL [2]: 0.17%; EOSINOPHIL [2]: 1%; ERYTHROCYTE COUNT [2]: 7.02 x10E6/uL; HEMATOCRIT [2]: 43.12%; HEMOGLOBIN [2]: 14.18 G/DL; LEUKOCYTE COUNT [2]: 9.63 x10E3/uL; LYMPHOCYTE [2]: 72%; MEAN CORPUSCULAR HEMOGLOBIN [2]: 20.25 pg; MEAN CORPUSCULAR HEMOGLOBIN CONCENTRATION [2]: 32.95 G/DL; MEAN CORPUSCULAR VOLUME [2]: 61.43 fL; MONOCYTE [2]: 2.67%; NEUTROPHIL [2]: 24.5%; PLATELET COUNT [2]: 1028.5 x10E3/uL; ALANINE AMINOTRANSFERASE [2]: 42.5 u/L; ALBUMIN [2]: 4.2 G/DL; ALKALINE PHOSPHATASE [2]: 300.33 u/L; ASPARTATE AMINOTRANSFERASE [2]: 87.67 u/L; BLOOD UREA NITROGEN [2]: 17 mg/dL; CARBON DIOXIDE [2]: 24.33 mmol/L; CHLORIDE [2]: 99 MEQ/L; CHOLESTEROL [2]: 70.67 mg/dL; CREATINE PHOSPHOKINASE [2]: 891.33 u/L; CREATININE [2]: 0.3 mg/dL; GLUCOSE [2]: 139.67 mg/dL; LACTATE DEHYDROGENASE [2]: 289.83 u/L; LIPASE [2]: 8.83 u/L; PHOSPHORUS [2]: 9.5 mg/dL; POTASSIUM [2]: 5.55 MEQ/L; SODIUM [2]: 139 MEQ/L; TOTAL BILIRUBIN [2]: 0.0833 mg/dL; TOTAL PROTEIN [2]: 6.1 G/DL; URIC ACID [2]: 0.98 mg/dL; BASOPHIL [3]: 0.33%; EOSINOPHIL [3]: 1%; ERYTHROCYTE COUNT [3]: 7.31 x10E6/uL; HEMATOCRIT [3]: 43.7%; HEMOGLOBIN [3]: 14.73 G/DL; LEUKOCYTE COUNT [3]: 11.5 x10E3/uL; LYMPHOCYTE [3]: 81.67%; MEAN CORPUSCULAR HEMOGLOBIN [3]: 20.17 pg; MEAN CORPUSCULAR HEMOGLOBIN CONCENTRATION [3]: 33.73 G/DL; MEAN CORPUSCULAR VOLUME [3]: 59.8 fL; MONOCYTE [3]: 2%; NEUTROPHIL [3]: 14.67%; PLATELET COUNT [3]: 1173.33 x10E3/uL; ALANINE AMINOTRANSFERASE [3]: 46 u/L; ALBUMIN [3]: 4.67 G/DL; ALKALINE PHOSPHATASE [3]: 305.33 u/L; ASPARTATE AMINOTRANSFERASE [3]: 75 u/L; BLOOD UREA NITROGEN [3]: 17.67 mg/dL; CARBON DIOXIDE [3]: 28.33 mmol/L; CHLORIDE [3]: 103.33 MEQ/L; CHOLESTEROL [3]: 73 mg/dL; CREATINE PHOSPHOKINASE [3]: 219 u/L; CREATININE [3]: 0.3 mg/dL; GLUCOSE [3]: 133.33 mg/dL; LACTATE DEHYDROGENASE [3]: 300.67 u/L; LIPASE [3]: 9.33 u/L; PHOSPHORUS [3]: 9.03 mg/dL; POTASSIUM [3]: 5.67 MEQ/L; SODIUM [3]: 146 MEQ/L; TOTAL BILIRUBIN [3]: 0.1 mg/dL; TOTAL PROTEIN [3]: 6.67 G/DL; URIC ACID [3]: 1.23 mg/dL; BASOPHIL [4]: 0.33%; EOSINOPHIL [4]: 1%; ERYTHROCYTE COUNT [4]: 7.01 x10E6/uL; HEMATOCRIT [4]: 42.37%; HEMOGLOBIN [4]: 14.23 G/DL; LEUKOCYTE COUNT [4]: 11.4 x10E3/uL; LYMPHOCYTE [4]: 79.67%; MEAN CORPUSCULAR HEMOGLOBIN [4]: 20.33 pg; MEAN CORPUSCULAR HEMOGLOBIN CONCENTRATION [4]: 33.57 G/DL; MEAN CORPUSCULAR VOLUME [4]: 60.47 fL; MONOCYTE [4]: 2%; NEUTROPHIL [4]: 17.33%; PLATELET COUNT [4]: 1226.33 x10E3/uL; ALANINE AMINOTRANSFERASE [4]: 44.67 u/L; ALBUMIN [4]: 4.23 G/DL; ALKALINE PHOSPHATASE [4]: 299.5 u/L; ASPARTATE AMINOTRANSFERASE [4]: 74.33 u/L; BLOOD UREA NITROGEN [4]: 18.67 mg/dL; CARBON DIOXIDE [4]: 20 mmol/L; CHLORIDE [4]: 98.33 MEQ/L; CHOLESTEROL [4]: 74 mg/dL; CREATINE PHOSPHOKINASE [4]: 216.33 u/L; CREATININE [4]: 0.27 mg/dL; GLUCOSE [4]: 136 mg/dL; LACTATE DEHYDROGENASE [4]: 197.33 u/L; LIPASE [4]: 8.67 u/L; PHOSPHORUS [4]: 7.83 mg/dL; POTASSIUM [4]: 5.6 MEQ/L; SODIUM [4]: 138 MEQ/L; TOTAL BILIRUBIN [4]: 0.1 mg/dL; TOTAL PROTEIN [4]: 6.17 G/DL; URIC ACID [4]: 0.93 mg/dL
